Laboratory results as given in patent US11019821B2, “Fused bicyclic heterocycle derivatives as pesticides” (Bayer Aktiengesellschaft, priority 2018, dated 2021).

How the values were obtained:
[1] = log P by HPLC on reversed-phase column, acidic range; assay type: physicochemical; conditions: reversed-phase HPLC column (C 18); pH 2.7, 0.1% aqueous formic acid and acetonitrile, C 18 column, 55° C.; read-out: log P (HCOOH)
Procedure: The log P values are measured according to EEC Directive 79/831 Annex V.A8 by HPLC (high-performance lilog Puid chromatography) on a reversed-phase column (C 18). Temperature: 55° C.
The LC-MS determination in the acidic range is effected at pH 2.7 with 0.1% alog Pueous formic acid and acetonitrile (containing 0.1% formic acid) as eluents; linear gradient from 10% acetonitrile to 95% acetonitrile. Called log P (HCOOH) in the table.
Calibration is effected using unbranched alkan-2-ones (having 3 to 16 carbon atoms) with known log P values (log P values determined on the basis of the retention times by linear interpolation between two successive alkanones).

[2] = tested on: Spodoptera frugiperda; experiment: Spodoptera frugiperda spray test; assay type: in vivo; conditions: application rate 100 g/ha, after 7 days, maize leaf discs
Procedure: (§1) To produce a suitable active ingredient formulation, 1 part by weight of active ingredient is dissolved with the specified parts by weight of solvent and made up to the desired concentration with water containing an emulsifier concentration of 1000 ppm. To produce further test concentrations, the formulation is diluted with emulsifier-containing water.
Leaf discs of maize (Zea mays) are sprayed with an active ingredient formulation of the desired concentration and, after drying, populated with caterpillars of the armyworm (Spodoptera frugiperda).
After 7 days, the efficacy in % is determined. 100% means that all the caterpillars have been killed; 0% means that no caterpillar has been killed.

[3] = tested on: Phaedon cochleariae; experiment: Phaedon cochleariae spray test; assay type: in vivo; conditions: application rate 100 g/ha, after 7 days, Chinese cabbage leaf discs
Procedure: as §1
Discs of Chinese cabbage leaves (Brassica pekinensis) are sprayed with an active ingredient formulation of the desired concentration and, after drying, populated with larvae of the mustard beetle (Phaedon cochleariae).
After 7 days, the efficacy in % is determined. 100% means that all the beetle larvae have been killed; 0% means that no beetle larvae have been killed.

[4] = tested on: Myzus persicae; experiment: Myzus persicae oral test; assay type: in vivo; conditions: 120 h, application rate 4 ppm, after 5 days, read-out: efficacy (aphids killed)
Procedure: To produce a suitable active ingredient formulation, 1 part by weight of active ingredient is dissolved with the stated parts by weight of solvent and made up to the desired concentration with water.
50 μl of the active ingredient preparation are transferred into microtitre plates and made up to a final volume of 200 μl with 150 μl of IPL41 insect medium (33%+15% sugar). Subselog Puently, the plates are sealed with parafilm, which a mixed population of green peach aphids (Myzus persicae) within a second microtitre plate is able to puncture and imbibe the solution.
(§2) After 5 days, the efficacy in % is determined. 100% means that all the aphids have been killed; 0% means that no aphids have been killed.

[5] = tested on: Myzus persicae; experiment: Myzus persicae spray test; assay type: in vivo; conditions: foliar, 120 h, application rate 100 g/ha, after 5 days, Chinese cabbage leaf discs, read-out: efficacy (aphids killed)
Procedure: as §1
Discs of Chinese cabbage leaves (Brassica pekinensis) infested by all stages of the green peach aphid (Myzus persicae) are sprayed with an active ingredient formulation of the desired concentration.
as §2

[6] = tested on: Tetranychus urticae; experiment: Tetranychus urticae spray test, OP-resistant; assay type: in vivo; conditions: application rate 100 g/ha, after 6 days, bean leaf discs
Procedure: as §1
Discs of bean leaves (Phaseolus vulgaris) infested with all stages of the greenhouse red spider mite (Tetranychus urticae) are sprayed with an active ingredient formulation of the desired concentration.
After 6 days, the efficacy in % is determined. 100% means that all the spider mites have been killed; 0% means that no spider mites have been killed.

[7] = tested on: Ctenocephalides felis; experiment: Ctenocephalides felis oral test; assay type: in vivo; conditions: application rate 100 ppm in citrated cattle blood, after 2 days, adult cat fleas
Procedure: (§3) Solvent: dimethyl sulfoxide
To produce a suitable active ingredient formulation, 10 mg of active ingredient are mixed with 0.5 ml of dimethyl sulfoxide. Dilution with citrated cattle blood gives the desired concentration.
About 20 unfed adult cat fleas (Ctenocephalides felis) are placed into a chamber which is closed at the top and bottom with gauze. A metal cylinder whose bottom end is closed with parafilm is placed onto the chamber. The cylinder contains the blood/active ingredient formulation, which can be imbibed by the fleas through the parafilm membrane.
After 2 days, the kill in % is determined. 100% means that all of the fleas have been killed; 0% means that none of the fleas have been killed.

[8] = tested on: Boophilus microplus; experiment: Boophilus microplus injection test; assay type: in vivo; conditions: application rate 20 μg/animal, assessed after 7 days, engorged adult female cattle ticks
Procedure: as §3
To produce a suitable active ingredient formulation, 10 mg of active ingredient are mixed with 0.5 ml of solvent and the concentrate is diluted to the desired concentration with solvent.
1 μl of the active ingredient solution is injected into the abdomen of 5 engorged adult female cattle ticks (Boophilus microplus). The animals are transferred into dishes and kept in a climate-controlled room.
Efficacy is assessed after 7 days by laying of fertile eggs. Eggs which are not visibly fertile are stored in a climate-controlled cabinet until the larvae hatch after about 42 days. An efficacy of 100% means that none of the ticks has laid any fertile eggs; 0% means that all the eggs are fertile.

[9] = tested on: Diabrotica balteata; experiment: Diabrotica balteata spray test; assay type: in vivo; conditions: application rate 160 μg/cavity, after 7 days, beetle larvae on germinated wheat grains
Procedure: To produce an appropriate active ingredient formulation, 1 part by weight of active ingredient is dissolved with the given parts by weight of solvent and made up with water containing an emulsifier concentration of 1000 ppm until the desired concentration is attained. Further test concentrations are produced by diluting with emulsifier-containing water.
Pre-swollen wheat grains (Triticum aestivum) are incubated in a multiwell plate filled with agar and a little water for one day (5 seed grains per cavity). The germinated wheat grains are sprayed with an active ingredient formulation of the desired concentration. Subselog Puently, each cavity is infected with 10-20 Diabrotica balteata beetle larvae.
After 7 days, efficacy in % is determined. 100% means that all wheat plants have grown as in the untreated, uninfected control; 0% means that no wheat plant has grown.

Work on Cn1c(-c2nn3c(c2Br)CC(C(F)(F)F)CC3)nc2cc(C(F)(F)F)cnc21 (centres unmarked) [2-[3-Bromo-5-(trifluoromethyl)-4,5,6,7-tetrahydropyrazolo[1,5-a]pyridin-2-yl]-3-methyl-6-(trifluoromethyl)imidazo[4,5-b]pyridine] yielded a chromatographic logP [1] of 3.99.
O=C(O)c1nn2c(c1Br)CC(C(F)(F)F)CC2 (centres unmarked) [3-Bromo-5-(trifluoromethyl)-4,5,6,7-tetrahydropyrazolo[1,5-a]pyridine-2-carboxylic acid] gave a chromatographic logP [1] of 1.75.
Compound O=C(O)c1cc2n(n1)CCC(C(F)(F)F)C2 (centres unmarked) [5-(Trifluoromethyl)-4,5,6,7-tetrahydropyrazolo[1,5-a]pyridine-2-carboxylic add] has a chromatographic logP [1] of 1.28.
With O=C(O)c1cc2cc(C(F)(F)F)ccn2n1 [5-(Trifluoromethyl)pyrazolo[1,5-a]pyridine-2-carboxylic add] the chromatographic logP [1] was 1.58.
In the case of COC(=O)c1nn2ccc(C(F)(F)F)cc2c1C(=O)OC [Dimethyl 5-(trifluoromethyl)pyrazolo[1,5-a]pyridine-2,3-dicarboxylate], the chromatographic logP [1] is reported as 2.57.
With CCS(=O)(=O)c1c(-c2nc3cc(C(F)(F)F)cnc3n2C)nn2c1CC(C(F)(F)F)CC2 (centres unmarked) [Example I-01, 2-[3-Ethylsulfonyl-5-(trifluoromethyl)-4,5,6,7-tetrahydropyrazolo[1,5-a]pyridin-2-yl]-3-methyl-6-(trifluoromethyl)imidazo[4,5-b]pyridine] the “efficacy (caterpillars killed)” value [2] was 100%, the “efficacy (beetle larvae killed)” value [3] was 100% and the chromatographic logP [1] was 3.21. It also gave a pest or weed control at 4 ppm [4] of 100%.
With CCS(=O)(=O)c1c(-c2nc3cc(C(F)(F)F)cnc3n2C)nn2c1CCCC2 [Example I-03] the “efficacy (beetle larvae killed)” value [3] was 100%, the pest or weed control at 4 ppm [4] was 100% and the pest or weed control at 100 g/ha [5] was 90%.
For CCS(=O)(=O)c1c(-c2nc3cc(C(F)(F)F)ncc3n2C)nn2c1CC(C(F)(F)F)CC2 (centres unmarked) [Example I-04], the “efficacy (spider mites killed)” value [6] was 100%, the pest or weed control at 4 ppm [4] was 100% and the pest or weed control at 100 g/ha [5] was 100%.
CCS(=O)(=O)c1c(-c2nc3cc(C(F)(F)F)ncc3n2C)nn2c1CCC(C)C2 (centres unmarked) [Example I-06] showed a pest or weed control at 100 g/ha [5] of 90%.
Work on CCS(=O)(=O)c1c(-c2nc3cc(C(F)(F)F)cnc3n2C)nn2c1CCC(C)C2 (centres unmarked) [Example I-07] yielded a pest or weed control at 4 ppm [4] of 100%.
In the case of CCS(=O)(=O)c1c(-c2nc3cc(C(F)(F)C(F)(F)F)cnc3n2C)nn2c1CCC(C)C2 (centres unmarked) [Example I-08], the “efficacy (caterpillars killed)” value [2] is reported as 100% and the pest or weed control at 4 ppm [4] is reported as 100%.
With CCS(=O)(=O)c1c(-c2nc3cc(OC(F)(F)F)cnc3n2C)nn2c1CCC(C)C2 (centres unmarked) [Example I-09] the pest or weed control at 4 ppm [4] was 90% and the pest or weed control at 100 g/ha [5] was 90%.
For CCS(=O)(=O)c1c(-c2nc3cc(C(F)(F)F)cnc3n2C)nn2c1CC(C)CC2 (centres unmarked) [Example I-10], the “efficacy (spider mites killed)” value [6] was 90%, the pest or weed control at 4 ppm [4] was 100% and the pest or weed control at 100 g/ha [5] was 90%.
In the case of CCS(=O)(=O)c1c(-c2nc3cc(SC(F)(F)F)cnc3n2C)nn2c1CCC(C)C2 (centres unmarked) [Example I-11], the “efficacy (caterpillars killed)” value [2] is reported as 83%, the “efficacy (kill in %)” value [7] is reported as 100% and the pest or weed control at 4 ppm [4] is reported as 100%. For the same compound, the pest or weed control at 100 g/ha [5] was 90%.
In the case of CCS(=O)(=O)c1c(-c2nc3cc(C(F)(F)C(F)(F)F)ncc3n2C)nn2c1CCCC2 [Example I-12], the “efficacy (beetle larvae killed)” value [3] is reported as 100%, the pest or weed control at 4 ppm [4] is reported as 100% and the pest or weed control at 100 g/ha [5] is reported as 90%.
With CCS(=O)(=O)c1c(-c2nc3cc(C(F)(F)C(F)(F)F)ncc3n2C)nn2c1CC(C)CC2 (centres unmarked) [Example I-13] the “efficacy (caterpillars killed)” value [2] was 100%, the “efficacy (spider mites killed)” value [6] was 100% and the “efficacy (kill in %)” value [7] was 100%. For the same compound, the pest or weed control at 4 ppm [4] was 100%, the pest or weed control at 100 g/ha [5] was 90% and the “efficacy (no laying of fertile eggs)” value [8] was 100%.
Compound CCS(=O)(=O)c1c(-c2nc3cc([S+]([O-])C(F)(F)F)cnc3n2C)nn2c1CCC(C)C2 (centres unmarked) [Example I-14] has a pest or weed control at 4 ppm [4] of 100% and a pest or weed control at 100 g/ha [5] of 100%.
With CCS(=O)(=O)c1c(-c2nc3cc(S(=O)(=O)C(F)(F)F)cnc3n2C)nn2c1CCC(C)C2 (centres unmarked) [Example I-15] the “efficacy (caterpillars killed)” value [2] was 100%, the “efficacy (kill in %)” value [7] was 90% and the pest or weed control at 4 ppm [4] was 90%. For the same compound, the pest or weed control at 100 g/ha [5] was 90%.
Compound CCS(=O)(=O)c1c(-c2nc3cc(S(=O)(=O)C(F)(F)F)ccc3o2)nn2c1CCC(C)C2 (centres unmarked) [Example I-16] has a pest or weed control at 4 ppm [4] of 90%.
For CCS(=O)(=O)c1c(-c2nc3cc(C(F)(F)C(F)(F)F)ncc3n2C)nn2c1CCC(C(F)(F)F)C2 (centres unmarked) [Example I-17], the “efficacy (caterpillars killed)” value [2] was 100%, the pest or weed control at 4 ppm [4] was 100% and the “efficacy (wheat plants grown as in untreated, uninfected control)” value [9] was 100%.
With CCS(=O)(=O)c1c(-c2nc3c(n2C)CN(C)C(C(F)(F)F)=C3)nn2c1CCC(C(F)(F)F)C2 (centres unmarked) [Example I-18] the pest or weed control at 4 ppm [4] was 100%, the pest or weed control at 100 g/ha [5] was 90% and the “efficacy (wheat plants grown as in untreated, uninfected control)” value [9] was 100%.
For CCS(=O)(=O)c1c(-c2nc3cc(C(F)(F)C(F)(F)F)cnc3n2C)nn2c1CCC(C(F)(F)F)C2 (centres unmarked) [Example I-19], the “efficacy (caterpillars killed)” value [2] was 100%, the pest or weed control at 4 ppm [4] was 100% and the “efficacy (wheat plants grown as in untreated, uninfected control)” value [9] was 100%.
